Measured values taken from ChEMBL document CHEMBL1150351, “Design, synthesis, and biological evaluation of new-generation taxoids” (J Med Chem, 2008).

Tests used:
[1] = Cytotoxicity against Pgp deficient human LCC6 cells after 72 hrs by sulforhodamine B test; type: functional, cell-based; details: C6, 72 h
[2] = Cytotoxicity against multidrug resistant Pgp expressing human LCC6 cells after 72 hrs by sulforhodamine B test; type: functional, cell-based; details: LCC-6, 72 h
C6 = test: Resistance index, Ratio of IC50 for multidrug resistant Pgp expressing human LCC6 cells to IC50 for Pgp deficient human LCC6 cells; type: functional; parameters: reference not given here
MCF7 [3] = test: Cytotoxicity against Pgp deficient human MCF7 cells after 72 hrs by sulforhodamine B test; type: functional, cell-based; details: MCF7, 72 h
[4] = Cytotoxicity against multidrug resistant Pgp expressing human NCI/ADR cells after 72 hrs by sulforhodamine B test; type: functional, cell-based; details: NCI/ADR-RES
MCF7 [5] = test: Resistance index, Ratio of IC50 for multidrug resistant Pgp expressing human NCI/ADR cells to IC50 for Pgp deficient human MCF7 cells; type: functional; parameters: reference not given here

| SMILES | IC50 [1] | IC50 [2] | Ratio IC50 (C6) | IC50 (MCF7 [3]) | IC50 [4] | Ratio IC50 (MCF7 [5]) |
| --- | --- | --- | --- | --- | --- | --- |
| CCC(=O)O[C@H]1C(=O)[C@@]2(C)[C@H]([C@H](OC(=O)c3ccccc3)[C@]3(O)C[C@H](OC(=O)[C@H](O)[C@H](C=C(C)C)NC(=O)C4CCC4)C(C)=C1C3(C)C)[C@]1(OC(C)=O)CO[C@@H]1C[C@@H]2O | 1.3 nM | 34 nM | 26 | 1.2 nM | 41 nM | 34 |
| COc1ccc(CC(=O)O[C@H]2C(=O)[C@@]3(C)[C@H]([C@H](OC(=O)c4cccc(OC)c4)[C@]4(O)C[C@H](OC(=O)[C@H](O)[C@H](C=C(C)C)NC(=O)OC(C)(C)C)C(C)=C2C4(C)C)[C@]2(OC(C)=O)CO[C@@H]2C[C@@H]3O)cc1 | 0.4 nM | 0.4 nM | 1 | 0.6 nM | 1.8 nM | 3 |
| CCC(=O)O[C@H]1C(=O)[C@@]2(C)[C@H]([C@H](OC(=O)c3cccc(OC)c3)[C@]3(O)C[C@H](OC(=O)[C@H](O)[C@H](C=C(C)C)NC(=O)C4CCC4)C(C)=C1C3(C)C)[C@]1(OC(C)=O)CO[C@@H]1C[C@@H]2O | 1.6 nM | 15 nM | 9.4 | 0.8 nM | 8.8 nM | 11 |
| CCC(=O)O[C@H]1C(=O)[C@@]2(C)[C@H]([C@H](OC(=O)c3ccccc3)[C@]3(O)C[C@H](OC(=O)[C@H](O)[C@H](C=C(C)C)NC(=O)C4=CCCC4)C(C)=C1C3(C)C)[C@]1(OC(C)=O)CO[C@@H]1C[C@@H]2O | 1.2 nM | 14 nM | 12 | 0.4 nM | 6 nM | 15 |
| CCC(=O)O[C@H]1C(=O)[C@@]2(C)[C@H]([C@H](OC(=O)c3cccc(OC)c3)[C@]3(O)C[C@H](OC(=O)[C@H](O)[C@H](C=C(C)C)NC(=O)OC4CCCCC4)C(C)=C1C3(C)C)[C@]1(OC(C)=O)CO[C@@H]1C[C@@H]2O | 1.23 nM | 14.8 nM | 12 | 1.44 nM | 14 nM | 9.7 |
| CCC(=O)O[C@H]1C(=O)[C@@]2(C)[C@H]([C@H](OC(=O)c3ccccc3)[C@]3(O)C[C@H](OC(=O)[C@H](O)[C@H](CC(C)C)NC(=O)OC4CCCCC4)C(C)=C1C3(C)C)[C@]1(OC(C)=O)CO[C@@H]1C[C@@H]2O | 4.8 nM | 18 nM | 3.8 | 1.4 nM | 14 nM | 10 |
| CCC(=O)O[C@H]1C(=O)[C@@]2(C)[C@H]([C@H](OC(=O)c3ccccc3)[C@]3(O)C[C@H](OC(=O)[C@H](O)[C@H](C=C(C)C)NC(=O)OC(C)(C)C)C(C)=C1C3(C)C)[C@]1(OC(C)=O)CO[C@@H]1C[C@@H]2O |  |  |  |  | 4 nM | 22 |
| CCC(=O)O[C@H]1C(=O)[C@@]2(C)[C@H]([C@H](OC(=O)c3ccccc3)[C@]3(O)C[C@H](OC(=O)[C@H](O)[C@H](CC(C)C)NC(=O)OC4CCCC4)C(C)=C1C3(C)C)[C@]1(OC(C)=O)CO[C@@H]1C[C@@H]2O | 2.6 nM | 14 nM | 5.4 | 1.3 nM | 8.8 nM | 6.8 |
| COc1cccc(C(=O)O[C@H]2[C@@H]3[C@]4(OC(C)=O)CO[C@@H]4C[C@H](O)[C@@]3(C)C(=O)[C@H](OC(=O)c3ccccc3OC)C3=C(C)[C@@H](OC(=O)[C@H](O)[C@H](C=C(C)C)NC(=O)OC(C)(C)C)C[C@]2(O)C3(C)C)c1 | 0.4 nM | 0.9 nM | 2.3 | 1.1 nM | 3.3 nM | 3 |
| CCC(=O)O[C@H]1C(=O)[C@@]2(C)[C@H]([C@H](OC(=O)c3cccc(OC)c3)[C@]3(O)C[C@H](OC(=O)[C@H](O)[C@H](CC(C)C)NC(=O)C4CCCCC4)C(C)=C1C3(C)C)[C@]1(OC(C)=O)CO[C@@H]1C[C@@H]2O | 1 nM | 12 nM | 12 | 0.7 nM | 6.5 nM | 9.3 |
| CCC(=O)O[C@H]1C(=O)[C@@]2(C)[C@H]([C@H](OC(=O)c3cccc(OC)c3)[C@]3(O)C[C@H](OC(=O)[C@H](O)[C@H](C=C(C)C)NC(=O)C4CCCC4)C(C)=C1C3(C)C)[C@]1(OC(C)=O)CO[C@@H]1C[C@@H]2O | 1.1 nM | 11 nM | 10 | 0.3 nM | 9.5 nM | 32 |
| CCC(=O)O[C@H]1C(=O)[C@@]2(C)[C@H]([C@H](OC(=O)c3ccccc3)[C@]3(O)C[C@H](OC(=O)[C@H](O)[C@H](CC(C)C)NC(=O)OC(C)(C)C)C(C)=C1C3(C)C)[C@]1(OC(C)=O)CO[C@@H]1C[C@@H]2O |  |  |  |  | 5.1 nM | 15 |
| CCC(=O)O[C@H]1C(=O)[C@@]2(C)[C@H]([C@H](OC(=O)c3cccc(N=[N+]=[N-])c3)[C@]3(O)C[C@H](OC(=O)[C@H](O)[C@H](C=C(C)C)NC(=O)OC(C)(C)C)C(C)=C1C3(C)C)[C@]1(OC(C)=O)CO[C@@H]1C[C@@H]2O | 0.9 nM |  |  | 0.9 nM | 1.1 nM |  |
| CCC(=O)O[C@H]1C(=O)[C@@]2(C)[C@H]([C@H](OC(=O)c3cccc(OC)c3)[C@]3(O)C[C@H](OC(=O)[C@H](O)[C@@H](NC(=O)OC(C)(C)C)[C@H]4CC4(C)C)C(C)=C1C3(C)C)[C@]1(OC(C)=O)CO[C@@H]1C[C@@H]2O | 0.48 nM |  |  | 0.6 nM | 1.5 nM |  |
| CCC(=O)O[C@H]1C(=O)[C@@]2(C)[C@H]([C@H](OC(=O)c3cccc(OC)c3)[C@]3(O)C[C@H](OC(=O)[C@H](O)[C@H](CC(C)C)NC(=O)OC4CCCC4)C(C)=C1C3(C)C)[C@]1(OC(C)=O)CO[C@@H]1C[C@@H]2O | 0.76 nM | 2.6 nM | 3.4 | 0.17 nM | 1.18 nM | 6.9 |
| CCC(=O)O[C@H]1C(=O)[C@@]2(C)[C@H]([C@H](OC(=O)c3ccccc3)[C@]3(O)C[C@H](OC(=O)[C@H](O)[C@H](C=C(C)C)NC(=O)OC4CCCCC4)C(C)=C1C3(C)C)[C@]1(OC(C)=O)CO[C@@H]1C[C@@H]2O | 1.2 nM | 15 nM | 13 | 1.4 nM | 8.9 nM | 6.4 |
| C=CC[C@H](NC(=O)OC(C)(C)C)[C@@H](O)C(=O)O[C@H]1C[C@@]2(O)[C@@H](OC(=O)c3cccc(OC)c3)[C@@H]3[C@]4(OC(C)=O)CO[C@@H]4C[C@H](O)[C@@]3(C)C(=O)[C@H](OC(=O)CC)C(=C1C)C2(C)C | 1.2 nM |  |  | 0.8 nM | 8.7 nM |  |
| COc1cccc(C(=O)O[C@H]2[C@@H]3[C@]4(OC(C)=O)CO[C@@H]4C[C@H](O)[C@@]3(C)C(=O)[C@H](OC(=O)OCc3ccccc3)C3=C(C)[C@@H](OC(=O)[C@H](O)[C@H](C=C(C)C)NC(=O)OC(C)(C)C)C[C@]2(O)C3(C)C)c1 | 1.2 nM | 1.8 nM | 1.5 | 0.2 nM | 1.5 nM | 7.5 |
| CCC(=O)O[C@H]1C(=O)[C@@]2(C)[C@H]([C@H](OC(=O)c3ccccc3)[C@]3(O)C[C@H](OC(=O)[C@H](O)[C@H](C=C(C)C)NC(=O)C4CCCCC4)C(C)=C1C3(C)C)[C@]1(OC(C)=O)CO[C@@H]1C[C@@H]2O | 1.3 nM | 13 nM | 10 | 1 nM | 18 nM | 18 |
| CCC(=O)O[C@H]1C(=O)[C@@]2(C)[C@H]([C@H](OC(=O)c3cccc(OC)c3)[C@]3(O)C[C@H](OC(=O)[C@H](O)[C@H](CC(C)C)NC(=O)C4CC4)C(C)=C1C3(C)C)[C@]1(OC(C)=O)CO[C@@H]1C[C@@H]2O | 0.6 nM | 13 nM | 22 | 0.4 nM | 11.8 nM | 30 |
| C=CCC[C@H](NC(=O)OC(C)(C)C)[C@@H](O)C(=O)O[C@H]1C[C@@]2(O)[C@@H](OC(=O)c3cccc(OC)c3)[C@@H]3[C@]4(OC(C)=O)CO[C@@H]4C[C@H](O)[C@@]3(C)C(=O)[C@H](OC(=O)CC)C(=C1C)C2(C)C | 0.9 nM |  |  | 2 nM | 7.7 nM |  |
| CCC(=O)O[C@H]1C(=O)[C@@]2(C)[C@H]([C@H](OC(=O)c3ccccc3)[C@]3(O)C[C@H](OC(=O)[C@H](O)[C@H](CC(C)C)NC(=O)C4CCCCC4)C(C)=C1C3(C)C)[C@]1(OC(C)=O)CO[C@@H]1C[C@@H]2O | 5.8 nM | 32 nM | 5.5 | 1.5 nM | 19 nM | 13 |
| CCC(=O)O[C@H]1C(=O)[C@@]2(C)[C@H]([C@H](OC(=O)c3ccccc3)[C@]3(O)C[C@H](OC(=O)[C@H](O)[C@H](CC(C)C)NC(=O)C4CCCC4)C(C)=C1C3(C)C)[C@]1(OC(C)=O)CO[C@@H]1C[C@@H]2O | 6.3 nM | 64 nM | 10 | 2.3 nM | 29 nM | 12 |
| CCC(=O)O[C@H]1C(=O)[C@@]2(C)[C@H]([C@H](OC(=O)c3ccccc3)[C@]3(O)C[C@H](OC(=O)[C@H](O)[C@H](C=C(C)C)NC(=O)C4CCCC4)C(C)=C1C3(C)C)[C@]1(OC(C)=O)CO[C@@H]1C[C@@H]2O | 1.1 nM | 19 nM | 17 | 1.1 nM | 22 nM | 20 |
| CCC(=O)O[C@H]1C(=O)[C@@]2(C)[C@H]([C@H](OC(=O)c3cccc(N=[N+]=[N-])c3)[C@]3(O)C[C@H](OC(=O)[C@H](O)[C@H](CC(C)C)NC(=O)OC(C)(C)C)C(C)=C1C3(C)C)[C@]1(OC(C)=O)CO[C@@H]1C[C@@H]2O | 1.1 nM |  |  | 1 nM | 2.1 nM |  |
